System: male and female Sprague–Dawley rats
Assay: 90-day subchronic oral gavage toxicity study
Assay type: in vivo, rat
Conditions: female
Method: Subchronic (90-day) studies were performed in accordance with current U.S. EPA’s Toxic Substances Control Act Good Laboratory Practice (GLP) Standards, with the following two general exceptions to the GLP guidelines: Analysis of the dose formulations was conducted according to RTI-approved Standard Operating Procedures, and corn oil (the vehicle) was not characterized (certificate of analysis from the vendor is available in the appendices to the final reports). Male and female Sprague–Dawley rats (five dose levels plus a control, n = 10/sex/dose group, corn oil vehicle dose volume of 3 mL/kg; oral gavage) were used in these studies, and the rats were euthanized on SD 91. The dose levels for PFHI were 0, 12.5, 25, 50, 100, and 200 mg/kg-day. The dose levels for MHFPK were 0, 18.8, 37.5, 75, 150, and 300 mg/kg-day. The dose levels for PFNAC were 0, 0.1, 0.3, 1.0, 3.0, and 10 mg/kg-day for male rats and 0, 0.3, 1.0, 3.0, 10, and 30 mg/kg-day for female rats. For CTFPA, the dose levels were 0, 1.9, 3.8. 7.5, 15, and 30 mg/kg-day for male rats and 0, 6.3, 12.5, 25, 50, and 100 mg/kg-day for female rats. For each PFAS, three batches of dosing solution were prepared. The time between the batch preparation of the dosing solutions ranged between 29 and 39 days. Blood samples were collected from all the rats at termination for serum chemistry, hematology, coagulation, and the analysis of the parent PFAS chemical in the plasma. In vivo data collection and further detail on the endpoints examined postmortem are described below.
The rats were observed twice daily for morbidity and mortality throughout the study period. At least once prior to randomization to test groups and weekly thereafter, the rats were physically examined, and bodyweights were obtained. Feed consumption was quantified weekly starting on SD 1.
Neurotoxicity was evaluated using the functional observational battery (FOB) and measuring locomotor activity (LMA) 2–4 h post dosing on SDs 78–80 and 80–84, respectively. For both the 14- and 90-day studies, an ophthalmologic examination was conducted prior to randomization and near the end of the study, using indirect ophthalmoscopy and slit–lamp biomicroscopy (as needed) after the administration of a mydriatic solution.
Hematology, biochemistry, and coagulation endpoints were measured at the termination of the study. A Siemens Advia 2120i hematology analyzer (Siemens Healthineers, Erlangen, Germany) was used to measure (or calculate) the parameters related to the complete blood count, leukocyte differential count, and reticulocyte count. The hematology parameters are listed and described in Table 2. The prothrombin time […] and activated partial thromboplastin time (APTT) were measured using an Instrumentation Laboratory (Bedford, MA, USA) ACL Elite Pro coagulation analyzer (laser–nephelometric centrifugal method).
At necropsy, the rats were visually examined for external abnormalities and organ weights (absolute and relative to the BW and brain weight), which were recorded (paired organs weighed together). The tissues were preserved in 10% neutral buffered formalin (NBF), except for the ocular tissues, testes, and epididymides, which were preserved in modified Davidson’s fixative and later transferred to 10% NBF. Bone marrow smears were prepared from the femurs, and the slides were air-dried, fixed in methanol, stained, and stored at room temperature for possible future evaluation. The preserved tissues were embedded in paraffin, sectioned, stained with hematoxylin and eosin, and examined by a board-certified veterinary pathologist.
Statistical analysis was performed using Provantis™ Version 10 or greater (Instem LSS, Limited; Stone, Staffordshire, UK). Differences among the treatment groups compared to the control were evaluated using one-way analysis of variance (ANOVA) if the underlying assumptions of a normal distribution (Shapiro–Wilk test) and the homogeneity of the variance (Levene’s test) were satisfied. […]

CC(=O)C(F)(F)C(F)(F)C(F)(F)F [MHFPK, Methyl heptafluoropropyl ketone]
% Diff, % BW Gain (75 mg/kg-day): 4.28%
% Diff, Total BW change (75 mg/kg-day): 4.15%
% Diff, Total Food Consumed (75 mg/kg-day): 4.34%
A/G (75 mg/kg-day): 1.27±0.60 ratio
ABEOS (75 mg/kg-day): 0.090±0.027 K/µL
ABNEUT (75 mg/kg-day): 1.005±0.441 K/µL
ABRETi (75 mg/kg-day): 193.71±46.37 10^9/L
ALB (75 mg/kg-day): 4.45 ± 0.91 g/dL
ALPi (75 mg/kg-day): 55.0±18.5 U/L
APTT (75 mg/kg-day): 18.68 s
BUN (75 mg/kg-day): 16.5 ± 2.1 mg/dL
CHOL (75 mg/kg-day): 99.1 ± 21.5 mg/dL
GLOB (75 mg/kg-day): 3.85 ± 0.96 g/dL
GLUC (75 mg/kg-day): 159.0 ± 32.6 mg/dL
HCT (75 mg/kg-day): 45.88±1.35%
HGB (75 mg/kg-day): 14.40 ± 0.50 g/dL
Kidney Weight (75 mg/kg-day): 1.91 g
Kidney/Body Weight (75 mg/kg-day): 0.59%
Kidney/Brain Weight (75 mg/kg-day): 96.8%
Liver Weight (75 mg/kg-day): 8.53 g
Liver/Body Weight (75 mg/kg-day): 2.62%
Liver/Brain Weight (75 mg/kg-day): 432%
MPV (75 mg/kg-day): 8.55 ± 0.75 fL
PT (75 mg/kg-day): 14.74 s
RBC (75 mg/kg-day): 7.823±0.340 M/µL
Total BW change (75 mg/kg-day): 94.83 g
Total Food Consumed (75 mg/kg-day): 1522 g
% BW Gain (150 mg/kg-day): 37.70%
% Diff, % BW Gain (150 mg/kg-day): -0.15%
% Diff, Total BW change (150 mg/kg-day): -0.78%
% Diff, Total Food Consumed (150 mg/kg-day): 5.76%
A/G (150 mg/kg-day): 1.14±0.34 ratio
ABEOS (150 mg/kg-day): 0.093±0.035 K/µL
ABNEUT (150 mg/kg-day): 1.175±0.584 K/µL
ABRETi (150 mg/kg-day): 193.46±35.08 10^9/L
ALB (150 mg/kg-day): 4.37 ± 0.51 g/dL
ALPi (150 mg/kg-day): 47.5±8.8 U/L
APTT (150 mg/kg-day): 21.76 s
BUN (150 mg/kg-day): 18.2 ± 2.9 mg/dL
CHOL (150 mg/kg-day): 104.3 ± 20.7 mg/dL
GLOB (150 mg/kg-day): 4.00 ± 0.81 g/dL
GLUC (150 mg/kg-day): 166.7 ± 26.3 mg/dL
HCT (150 mg/kg-day): 45.40±1.55%
HGB (150 mg/kg-day): 14.27 ± 0.54 g/dL
Kidney Weight (150 mg/kg-day): 1.84 g
Kidney/Body Weight (150 mg/kg-day): 0.57%
Kidney/Brain Weight (150 mg/kg-day): 95.8%
Liver Weight (150 mg/kg-day): 8.84 g
Liver/Body Weight (150 mg/kg-day): 2.74%
Liver/Brain Weight (150 mg/kg-day): 462%
MPV (150 mg/kg-day): 8.84 ± 0.70 fL
PT (150 mg/kg-day): 14.99 s
RBC (150 mg/kg-day): 7.731±0.255 M/µL
Total BW change (150 mg/kg-day): 90.34 g
Total Food Consumed (150 mg/kg-day): 1542 g
% BW Gain (300 mg/kg-day): 39.88%
% Diff, % BW Gain (300 mg/kg-day): 5.61%
% Diff, Total BW change (300 mg/kg-day): 5.11%
% Diff, Total Food Consumed (300 mg/kg-day): 7.99%
A/G (300 mg/kg-day): 1.01±0.13 ratio
ABEOS (300 mg/kg-day): 0.085±0.022 K/µL
ABNEUT (300 mg/kg-day): 1.220±0.506 K/µL
ABRETi (300 mg/kg-day): 181.86±36.58 10^9/L
ALB (300 mg/kg-day): 4.15 ± 0.28 g/dL
ALPi (300 mg/kg-day): 54.1±22.2 U/L
APTT (300 mg/kg-day): 22.79 s
BUN (300 mg/kg-day): 17.6 ± 4.5 mg/dL
CHOL (300 mg/kg-day): 107.5 ± 21.4 mg/dL
GLOB (300 mg/kg-day): 4.16 ± 0.64 g/dL
GLUC (300 mg/kg-day): 151.4 ± 28.6 mg/dL
HCT (300 mg/kg-day): 48.02±1.91%
HGB (300 mg/kg-day): 14.98 ± 0.42 g/dL
Kidney Weight (300 mg/kg-day): 1.94 g
Kidney/Body Weight (300 mg/kg-day): 0.59%
Kidney/Brain Weight (300 mg/kg-day): 97.1%
Liver Weight (300 mg/kg-day): 8.59 g
Liver/Body Weight (300 mg/kg-day): 2.63%
Liver/Brain Weight (300 mg/kg-day): 430%

Source: publication PMC12298827, “Subchronic Toxicities of Four Per- and Polyfluoroalkyl Substances (PFASs) by Oral Exposure in Sprague–Dawley Rats” (Toxics, 2025)
